# Columns and labels:
# Assay in all cases: Caliper, Mobility shift assay off-chip
# PRKACA (cow) = settings: accession and sequence are those of the human protein
# RPS6KA1 KD1 KD2 (rat) = settings: accession and sequence are those of the human protein
# PTK2 (human) = PTK2 (human) (UniProt Q05397)
# MAPK1 (mouse) = settings: accession and sequence are those of the human protein
# ROCK2 (rat) = settings: accession and sequence are those of the human protein
# EPHA1 (human) = EPHA1 (human) (UniProt P21709)
# Sequence of EPHA1 (human) (P21709 whole entry, looked up): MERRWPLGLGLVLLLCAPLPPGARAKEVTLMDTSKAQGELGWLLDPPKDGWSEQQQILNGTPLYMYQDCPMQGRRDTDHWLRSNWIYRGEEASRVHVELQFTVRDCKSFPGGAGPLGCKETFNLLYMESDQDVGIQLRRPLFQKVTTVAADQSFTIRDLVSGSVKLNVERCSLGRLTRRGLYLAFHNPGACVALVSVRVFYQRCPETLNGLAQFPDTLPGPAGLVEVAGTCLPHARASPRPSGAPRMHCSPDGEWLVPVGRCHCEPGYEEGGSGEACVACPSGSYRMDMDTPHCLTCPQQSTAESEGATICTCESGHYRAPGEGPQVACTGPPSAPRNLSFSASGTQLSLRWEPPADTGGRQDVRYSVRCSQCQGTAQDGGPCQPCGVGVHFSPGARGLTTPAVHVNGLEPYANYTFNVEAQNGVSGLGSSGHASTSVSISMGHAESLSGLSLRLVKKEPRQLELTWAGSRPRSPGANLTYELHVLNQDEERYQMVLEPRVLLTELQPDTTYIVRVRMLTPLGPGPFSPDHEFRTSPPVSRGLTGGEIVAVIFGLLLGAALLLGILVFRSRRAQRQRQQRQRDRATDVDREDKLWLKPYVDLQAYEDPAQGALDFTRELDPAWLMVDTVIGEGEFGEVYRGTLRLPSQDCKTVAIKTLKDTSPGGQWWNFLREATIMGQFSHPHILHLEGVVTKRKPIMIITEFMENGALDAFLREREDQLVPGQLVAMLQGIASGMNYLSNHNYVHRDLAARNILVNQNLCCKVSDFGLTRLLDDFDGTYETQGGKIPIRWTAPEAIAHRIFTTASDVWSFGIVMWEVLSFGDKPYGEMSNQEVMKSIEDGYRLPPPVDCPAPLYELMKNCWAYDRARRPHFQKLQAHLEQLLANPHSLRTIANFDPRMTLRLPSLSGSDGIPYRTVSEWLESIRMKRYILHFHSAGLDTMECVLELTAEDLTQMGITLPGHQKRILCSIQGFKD
# SIK1 (human) = SIK1 (human) (UniProt P57059)
# Sequence of SIK1 (human) (P57059 whole entry, looked up): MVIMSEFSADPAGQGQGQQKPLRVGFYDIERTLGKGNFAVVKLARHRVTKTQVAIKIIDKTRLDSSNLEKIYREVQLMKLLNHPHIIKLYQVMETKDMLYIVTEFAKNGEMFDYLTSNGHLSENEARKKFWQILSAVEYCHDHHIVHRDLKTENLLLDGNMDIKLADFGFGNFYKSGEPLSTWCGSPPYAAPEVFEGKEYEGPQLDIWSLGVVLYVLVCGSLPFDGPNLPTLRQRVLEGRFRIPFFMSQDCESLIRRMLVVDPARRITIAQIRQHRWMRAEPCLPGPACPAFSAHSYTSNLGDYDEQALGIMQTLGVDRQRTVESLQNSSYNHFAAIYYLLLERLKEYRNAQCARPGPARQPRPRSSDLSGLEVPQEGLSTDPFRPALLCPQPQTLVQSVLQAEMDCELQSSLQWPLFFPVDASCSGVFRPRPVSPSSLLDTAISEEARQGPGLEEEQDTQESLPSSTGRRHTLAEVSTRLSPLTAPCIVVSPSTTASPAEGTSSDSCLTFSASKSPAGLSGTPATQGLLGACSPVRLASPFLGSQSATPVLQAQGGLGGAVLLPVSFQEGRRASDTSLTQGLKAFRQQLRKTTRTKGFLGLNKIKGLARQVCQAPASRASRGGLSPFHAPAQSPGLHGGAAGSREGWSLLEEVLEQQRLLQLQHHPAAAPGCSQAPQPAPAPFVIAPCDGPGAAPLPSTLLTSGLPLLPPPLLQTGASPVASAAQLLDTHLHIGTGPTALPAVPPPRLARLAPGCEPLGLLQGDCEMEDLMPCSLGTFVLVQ
# MARK1 (human) = MARK1 (human) (UniProt Q9P0L2)
# MARK2 (human) = MARK2 (human) (UniProt Q7KZI7)
# [1] = tested on: FLT3 (human), P36888 [D835Y]
# ACVR1B (human) = ACVR1B (human) (UniProt P36896)
# PRKCQ (human) = PRKCQ (human) (UniProt Q04759)
# CHEK2 (human) = CHEK2 (human) (UniProt O96017)
# [2] = tested on: MAPK14 (human), Q16539 [T106M]
# PAK2 (human) = PAK2 (human) (UniProt Q13177)
# Sequence of PAK2 (human) (Q13177 whole entry, looked up): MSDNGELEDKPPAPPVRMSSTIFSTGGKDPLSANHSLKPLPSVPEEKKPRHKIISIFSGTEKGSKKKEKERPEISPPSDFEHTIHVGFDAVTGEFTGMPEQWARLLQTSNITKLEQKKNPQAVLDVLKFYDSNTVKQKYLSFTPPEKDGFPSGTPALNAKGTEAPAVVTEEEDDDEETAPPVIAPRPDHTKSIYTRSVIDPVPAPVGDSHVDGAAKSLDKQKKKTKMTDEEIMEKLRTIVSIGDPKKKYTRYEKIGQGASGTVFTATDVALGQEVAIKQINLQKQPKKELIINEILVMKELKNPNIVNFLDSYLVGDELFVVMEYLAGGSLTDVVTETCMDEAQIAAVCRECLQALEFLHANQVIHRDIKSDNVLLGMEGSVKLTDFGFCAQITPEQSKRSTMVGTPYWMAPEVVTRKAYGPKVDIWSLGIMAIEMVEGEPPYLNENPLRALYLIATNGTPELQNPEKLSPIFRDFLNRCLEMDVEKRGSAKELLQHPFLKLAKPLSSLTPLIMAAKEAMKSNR
# CDK5 CDK5R1 p35 (human) = CDK5 CDK5R1 p35 (human) (UniProt Q00535+Q15078)
# MAP2K6 (human) = MAP2K6 (human) (UniProt P52564)
# Sequence of MAP2K6 (human) (P52564 whole entry, looked up): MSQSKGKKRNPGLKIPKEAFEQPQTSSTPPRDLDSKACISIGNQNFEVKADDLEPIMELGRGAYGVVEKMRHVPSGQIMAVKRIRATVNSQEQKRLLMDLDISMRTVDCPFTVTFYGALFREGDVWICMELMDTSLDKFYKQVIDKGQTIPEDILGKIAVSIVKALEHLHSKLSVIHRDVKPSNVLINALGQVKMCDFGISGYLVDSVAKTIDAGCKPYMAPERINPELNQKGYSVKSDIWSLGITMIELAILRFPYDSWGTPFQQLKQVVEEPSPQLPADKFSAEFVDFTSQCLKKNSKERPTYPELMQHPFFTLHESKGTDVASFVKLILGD
# EPHB4 (human) = EPHB4 (human) (UniProt P54760)
# PRKCE (human) = PRKCE (human) (UniProt Q02156)
# EPHB1 (human) = EPHB1 (human) (UniProt P54762)
# CAMK1 (human) = CAMK1 (human) (UniProt Q14012)
# CDC42BPA (human) = CDC42BPA (human) (UniProt Q5VT25)
# Sequence of CDC42BPA (human) (Q5VT25 whole entry, looked up): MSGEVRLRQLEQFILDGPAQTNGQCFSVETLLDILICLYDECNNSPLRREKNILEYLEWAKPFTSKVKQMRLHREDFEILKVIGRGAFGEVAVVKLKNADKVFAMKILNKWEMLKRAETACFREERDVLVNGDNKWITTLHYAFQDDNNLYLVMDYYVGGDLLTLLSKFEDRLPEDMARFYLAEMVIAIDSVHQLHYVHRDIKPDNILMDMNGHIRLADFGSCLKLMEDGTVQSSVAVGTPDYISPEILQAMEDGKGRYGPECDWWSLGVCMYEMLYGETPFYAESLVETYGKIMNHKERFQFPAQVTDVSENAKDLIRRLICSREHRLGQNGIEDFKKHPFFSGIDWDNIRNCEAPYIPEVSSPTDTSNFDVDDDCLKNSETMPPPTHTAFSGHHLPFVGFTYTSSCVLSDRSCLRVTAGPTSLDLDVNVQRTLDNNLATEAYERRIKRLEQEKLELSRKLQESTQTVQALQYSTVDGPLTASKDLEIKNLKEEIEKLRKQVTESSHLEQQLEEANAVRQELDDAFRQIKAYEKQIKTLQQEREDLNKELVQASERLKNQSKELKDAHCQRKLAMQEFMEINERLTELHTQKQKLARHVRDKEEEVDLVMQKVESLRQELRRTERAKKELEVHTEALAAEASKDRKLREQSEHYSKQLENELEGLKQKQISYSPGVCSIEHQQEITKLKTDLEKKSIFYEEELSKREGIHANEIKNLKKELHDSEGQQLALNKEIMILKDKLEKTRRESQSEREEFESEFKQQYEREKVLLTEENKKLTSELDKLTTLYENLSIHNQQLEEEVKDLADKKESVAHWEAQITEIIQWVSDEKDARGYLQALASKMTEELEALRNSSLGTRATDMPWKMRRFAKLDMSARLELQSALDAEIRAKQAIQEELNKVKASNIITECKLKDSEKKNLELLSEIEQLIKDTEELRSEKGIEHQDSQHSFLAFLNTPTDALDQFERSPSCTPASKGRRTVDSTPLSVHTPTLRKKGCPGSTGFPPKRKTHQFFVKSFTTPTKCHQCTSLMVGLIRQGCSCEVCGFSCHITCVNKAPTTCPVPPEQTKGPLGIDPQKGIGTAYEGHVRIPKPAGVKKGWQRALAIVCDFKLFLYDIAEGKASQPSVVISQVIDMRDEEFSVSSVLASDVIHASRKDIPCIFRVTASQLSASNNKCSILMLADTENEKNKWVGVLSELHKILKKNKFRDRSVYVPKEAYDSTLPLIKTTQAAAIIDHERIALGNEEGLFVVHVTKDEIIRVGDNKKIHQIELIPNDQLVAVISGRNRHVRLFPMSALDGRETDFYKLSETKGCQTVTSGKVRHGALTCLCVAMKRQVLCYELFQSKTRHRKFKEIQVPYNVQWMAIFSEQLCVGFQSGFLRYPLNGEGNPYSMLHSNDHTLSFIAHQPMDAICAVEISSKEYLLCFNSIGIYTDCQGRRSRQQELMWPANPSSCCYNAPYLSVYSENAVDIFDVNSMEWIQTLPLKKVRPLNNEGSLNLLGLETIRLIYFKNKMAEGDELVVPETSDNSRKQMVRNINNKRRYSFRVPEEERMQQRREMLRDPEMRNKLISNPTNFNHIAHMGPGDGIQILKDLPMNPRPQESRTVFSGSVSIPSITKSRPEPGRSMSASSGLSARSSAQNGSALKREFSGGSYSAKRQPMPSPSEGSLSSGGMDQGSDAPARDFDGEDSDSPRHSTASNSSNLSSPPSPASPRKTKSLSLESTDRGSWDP
# PAK7 (human) = PAK7 (human) (UniProt Q9P286)
# IRAK1 (human) = IRAK1 (human) (UniProt P51617)
# HIPK3 (human) = HIPK3 (human) (UniProt Q9H422)
# PRKCB2 (human) = PRKCB2 (human) (UniProt P05771)
# PAK6 (human) = PAK6 (human) (UniProt Q9NQU5)
# Sequence of PAK6 (human) (Q9NQU5 whole entry, looked up): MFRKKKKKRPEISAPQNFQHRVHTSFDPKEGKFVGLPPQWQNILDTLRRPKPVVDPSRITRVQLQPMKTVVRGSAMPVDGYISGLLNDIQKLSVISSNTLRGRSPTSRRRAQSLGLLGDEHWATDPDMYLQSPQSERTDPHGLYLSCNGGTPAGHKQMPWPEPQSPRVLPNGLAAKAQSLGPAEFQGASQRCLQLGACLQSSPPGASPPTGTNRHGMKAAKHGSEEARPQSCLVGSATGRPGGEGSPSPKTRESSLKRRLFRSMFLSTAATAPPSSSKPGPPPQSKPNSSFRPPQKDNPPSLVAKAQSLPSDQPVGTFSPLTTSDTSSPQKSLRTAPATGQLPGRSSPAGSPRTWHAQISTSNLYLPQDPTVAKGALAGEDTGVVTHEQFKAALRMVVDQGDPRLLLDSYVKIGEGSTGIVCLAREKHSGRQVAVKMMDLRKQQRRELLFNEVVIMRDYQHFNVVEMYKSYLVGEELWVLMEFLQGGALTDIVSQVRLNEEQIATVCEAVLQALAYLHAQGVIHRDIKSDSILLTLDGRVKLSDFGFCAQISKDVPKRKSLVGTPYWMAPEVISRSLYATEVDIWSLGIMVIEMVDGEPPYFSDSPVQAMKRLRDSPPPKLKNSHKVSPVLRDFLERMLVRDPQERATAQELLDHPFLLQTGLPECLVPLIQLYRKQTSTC
# PLK1 (human) = PLK1 (human) (UniProt P53350)
# [3] = tested on: TEK (human), Q02763 [Y897S]
# [4] = tested on: BTK (human), Q06187 [R28H]
# ULK3 (human) = ULK3 (human) (UniProt Q6PHR2)
# [5] = tested on: ABL1 (human), P00519 [H396P]
# GRK7 (human) = GRK7 (human) (UniProt Q8WTQ7)
# [6] = tested on: ABL1 (human), P00519 [Q252H]
# TAOK1 (human) = TAOK1 (human) (UniProt Q7L7X3)
# TXK (human) = TXK (human) (UniProt P42681)
# CLK2 (human) = CLK2 (human) (UniProt P49760)
# [7] = tested on: RET (human), P07949 [V804M]
# [8] = tested on: ABL1 (human), P00519 [M351T]
# [9] = tested on: RET (human), P07949 [V804L]
# [10] = tested on: SRC (human), P12931 [T341M]
# BLK (mouse) = settings: accession and sequence are those of the human protein
smiles,measurement,setting,value
CC(C)(C)c1nc2c3ccc(F)cc3c3c(=O)[nH]ccc3c2[nH]1,residual activity,PRKACA (cow); compound 10.0 µM,45%
same,residual activity,RPS6KA1 KD1 KD2 (rat); compound 10.0 µM,10%
same,residual activity,PTK2 (human); compound 10.0 µM,93%
same,residual activity,MAPK1 (mouse); compound 10.0 µM,11%
same,residual activity,ROCK2 (rat); compound 10.0 µM,21%
COc1ccc(C#Cc2ccc3ncc4ncn(-c5ccc(CCN)cc5)c4c3c2)cc1,residual activity,EPHA1 (human); compound 10.0 µM,80%
same,residual activity,SIK1 (human); compound 10.0 µM,25%
same,residual activity,MARK1 (human); compound 10.0 µM,86%
same,residual activity,MARK2 (human); compound 10.0 µM,108%
same,residual activity,[1]; compound 10.0 µM,10%
same,residual activity,ACVR1B (human); compound 10.0 µM,18%
same,residual activity,PRKCQ (human); compound 10.0 µM,57%
same,residual activity,CHEK2 (human); compound 10.0 µM,5%
same,residual activity,[2]; compound 10.0 µM,79%
same,residual activity,PAK2 (human); compound 10.0 µM,98%
same,residual activity,CDK5 CDK5R1 p35 (human); compound 10.0 µM,98%
same,residual activity,MAP2K6 (human); compound 10.0 µM,33%
same,residual activity,PTK2 (human); compound 10.0 µM,76%
same,residual activity,EPHB4 (human); compound 10.0 µM,83%
same,residual activity,PRKCE (human); compound 10.0 µM,81%
same,residual activity,EPHB1 (human); compound 10.0 µM,110%
same,residual activity,CAMK1 (human); compound 10.0 µM,9%
same,residual activity,CDC42BPA (human); compound 10.0 µM,85%
same,residual activity,PAK7 (human); compound 10.0 µM,121%
same,residual activity,IRAK1 (human); compound 10.0 µM,58%
same,residual activity,HIPK3 (human); compound 10.0 µM,90%
same,residual activity,PRKCB2 (human); compound 10.0 µM,118%
same,residual activity,PAK6 (human); compound 10.0 µM,112%
C[C@@H](Nc1nc2c(C#CC3CC3)c[nH]c(=O)c2c2cc(-c3cn[nH]c3)ccc12)C(C)(C)C,residual activity,EPHA1 (human); compound 1.0 µM,99%
same,residual activity,PLK1 (human); compound 1.0 µM,81%
same,residual activity,SIK1 (human); compound 1.0 µM,23%
same,residual activity,MARK1 (human); compound 1.0 µM,61%
same,residual activity,MARK2 (human); compound 1.0 µM,87%
same,residual activity,[1]; compound 1.0 µM,9%
same,residual activity,ACVR1B (human); compound 1.0 µM,93%
same,residual activity,PRKCQ (human); compound 1.0 µM,78%
same,residual activity,[3]; compound 1.0 µM,82%
same,residual activity,CHEK2 (human); compound 1.0 µM,4%
same,residual activity,[2]; compound 1.0 µM,103%
same,residual activity,PAK2 (human); compound 1.0 µM,99%
same,residual activity,[4]; compound 1.0 µM,100%
same,residual activity,ULK3 (human); compound 1.0 µM,47%
same,residual activity,[5]; compound 1.0 µM,49%
same,residual activity,GRK7 (human); compound 1.0 µM,90%
same,residual activity,[6]; compound 1.0 µM,54%
same,residual activity,CDK5 CDK5R1 p35 (human); compound 1.0 µM,122%
same,residual activity,MAP2K6 (human); compound 1.0 µM,106%
same,residual activity,PTK2 (human); compound 1.0 µM,75%
same,residual activity,EPHB4 (human); compound 1.0 µM,137%
same,residual activity,TAOK1 (human); compound 1.0 µM,95%
same,residual activity,PRKCE (human); compound 1.0 µM,106%
same,residual activity,EPHB1 (human); compound 1.0 µM,104%
same,residual activity,CAMK1 (human); compound 1.0 µM,63%
same,residual activity,TXK (human); compound 1.0 µM,84%
same,residual activity,CDC42BPA (human); compound 1.0 µM,111%
same,residual activity,CLK2 (human); compound 1.0 µM,67%
same,residual activity,[7]; compound 1.0 µM,13%
same,residual activity,[8]; compound 1.0 µM,50%
same,residual activity,PAK7 (human); compound 1.0 µM,103%
same,residual activity,IRAK1 (human); compound 1.0 µM,102%
same,residual activity,HIPK3 (human); compound 1.0 µM,104%
same,residual activity,PRKCB2 (human); compound 1.0 µM,105%
same,residual activity,[9]; compound 1.0 µM,2%
same,residual activity,PAK6 (human); compound 1.0 µM,103%
same,residual activity,[10]; compound 1.0 µM,55%
O=C(N[C@@H](COc1ccc2[nH]c(=O)[nH]c2c1)c1ccccc1)c1cccn(Cc2ccc(F)c(F)c2)c1=O,residual activity,EPHA1 (human); compound 10.0 µM,107%
same,residual activity,PLK1 (human); compound 10.0 µM,116%
same,residual activity,SIK1 (human); compound 10.0 µM,102%
same,residual activity,MARK1 (human); compound 10.0 µM,99%
same,residual activity,MARK2 (human); compound 10.0 µM,96%
same,residual activity,[1]; compound 10.0 µM,99%
same,residual activity,ACVR1B (human); compound 10.0 µM,115%
same,residual activity,PRKCQ (human); compound 10.0 µM,108%
same,residual activity,[3]; compound 10.0 µM,111%
same,residual activity,CHEK2 (human); compound 10.0 µM,132%
same,residual activity,[2]; compound 10.0 µM,113%
same,residual activity,PAK2 (human); compound 10.0 µM,94%
same,residual activity,[4]; compound 10.0 µM,106%
same,residual activity,ULK3 (human); compound 10.0 µM,99%
same,residual activity,[5]; compound 10.0 µM,114%
same,residual activity,GRK7 (human); compound 10.0 µM,108%
same,residual activity,BLK (mouse); compound 10.0 µM,94%
same,residual activity,[6]; compound 10.0 µM,69%
same,residual activity,CDK5 CDK5R1 p35 (human); compound 10.0 µM,97%
same,residual activity,MAP2K6 (human); compound 10.0 µM,115%
same,residual activity,PTK2 (human); compound 10.0 µM,103%
same,residual activity,EPHB4 (human); compound 10.0 µM,102%
same,residual activity,TAOK1 (human); compound 10.0 µM,96%
same,residual activity,PRKCE (human); compound 10.0 µM,96%
same,residual activity,EPHB1 (human); compound 10.0 µM,104%
same,residual activity,CAMK1 (human); compound 10.0 µM,96%
same,residual activity,TXK (human); compound 10.0 µM,138%
same,residual activity,CDC42BPA (human); compound 10.0 µM,101%
same,residual activity,CLK2 (human); compound 10.0 µM,100%
same,residual activity,[7]; compound 10.0 µM,109%
same,residual activity,[8]; compound 10.0 µM,110%
same,residual activity,PAK7 (human); compound 10.0 µM,100%
same,residual activity,IRAK1 (human); compound 10.0 µM,100%
same,residual activity,HIPK3 (human); compound 10.0 µM,110%
same,residual activity,PRKCB2 (human); compound 10.0 µM,96%
same,residual activity,[9]; compound 10.0 µM,112%
same,residual activity,PAK6 (human); compound 10.0 µM,101%
same,residual activity,[10]; compound 10.0 µM,102%
Cc1n[nH]c2c1c(=O)n(CCCN)c1ccc(Cl)cc21,residual activity,SIK1 (human); compound 1.0 µM,18%
same,residual activity,MARK1 (human); compound 1.0 µM,4%
same,residual activity,MARK2 (human); compound 1.0 µM,7%
same,residual activity,[1]; compound 1.0 µM,5%
same,residual activity,ACVR1B (human); compound 1.0 µM,138%
same,residual activity,PRKCQ (human); compound 1.0 µM,98%
same,residual activity,CHEK2 (human); compound 1.0 µM,5%
same,residual activity,PRKACA (cow); compound 1.0 µM,81%
same,residual activity,PAK2 (human); compound 1.0 µM,106%
same,residual activity,RPS6KA1 KD1 KD2 (rat); compound 1.0 µM,6%
same,residual activity,BLK (mouse); compound 1.0 µM,92%
same,residual activity,MAP2K6 (human); compound 1.0 µM,106%
same,residual activity,EPHB4 (human); compound 1.0 µM,84%
same,residual activity,PRKCE (human); compound 1.0 µM,90%
same,residual activity,CAMK1 (human); compound 1.0 µM,45%
same,residual activity,MAPK1 (mouse); compound 1.0 µM,90%
same,residual activity,ROCK2 (rat); compound 1.0 µM,88%
same,residual activity,PAK6 (human); compound 1.0 µM,31%
O=C(NCCCNc1nc(Nc2cccc(NC(=O)N3CCCC3)c2)ncc1I)c1cccs1,residual activity,EPHA1 (human); compound 1.0 µM,82%
same,residual activity,SIK1 (human); compound 1.0 µM,12%
same,residual activity,MARK1 (human); compound 1.0 µM,2%
same,residual activity,MARK2 (human); compound 1.0 µM,9%
same,residual activity,[1]; compound 1.0 µM,2%
same,residual activity,ACVR1B (human); compound 1.0 µM,99%
same,residual activity,PRKCQ (human); compound 1.0 µM,103%
same,residual activity,CHEK2 (human); compound 1.0 µM,60%
same,residual activity,[2]; compound 1.0 µM,95%
same,residual activity,PAK2 (human); compound 1.0 µM,111%
same,residual activity,CDK5 CDK5R1 p35 (human); compound 1.0 µM,47%
same,residual activity,MAP2K6 (human); compound 1.0 µM,108%
same,residual activity,PTK2 (human); compound 1.0 µM,80%
same,residual activity,EPHB4 (human); compound 1.0 µM,110%
same,residual activity,PRKCE (human); compound 1.0 µM,84%
same,residual activity,EPHB1 (human); compound 1.0 µM,101%
same,residual activity,CAMK1 (human); compound 1.0 µM,97%
same,residual activity,CDC42BPA (human); compound 1.0 µM,97%
same,residual activity,PAK7 (human); compound 1.0 µM,115%
same,residual activity,IRAK1 (human); compound 1.0 µM,99%
same,residual activity,HIPK3 (human); compound 1.0 µM,107%
same,residual activity,PRKCB2 (human); compound 1.0 µM,106%
same,residual activity,PAK6 (human); compound 1.0 µM,145%

# Reference: the kinase profiling compilation of Christmann-Franck et al. (2016)
